Results from US20230192772A1, “ANTIMICROBIAL PEPTIDES AND USES THEREOF” (SORBONNE UNIVERSITE, priority 2016, published 2023).
Converted amounts (≈) assume the structure as drawn. Ends that are not written are not given here.

Columns and labels:
Type in all cases: cell-based
[1] = tested on: Enterococcus faecalis CIP 103015; experiment: MIC/MBC (Example 10, MH medium)
Experimental: (§1) The MIC is determined using a growth inhibition test in liquid medium. The MIC is defined as being the lowest peptide concentration capable of inhibiting the bacterial strain tested, after incubation for 18 h at 37° C. The test was carried out in a sterile microtitration plate containing 96 wells. A series of increasing concentrations of each peptide (0.2 to 100 µM) was prepared beforehand in sterile MilliQ water. In each well, 10 µL of peptide was incubated with 90 µL of bacterial suspension (10^7 cfu/mL) in yeast extract-free LB medium. The microplate was incubated at 37° C. for 18 h. The bacterial growth was evaluated by measuring the OD at 620 nm using a plate reader.
(§2) The negative growth inhibition control was obtained by replacing the solution containing the peptide by sterile MilliQ water. The positive control suitable for completely inhibiting the growth of the bacterial strains was obtained by replacing the solution containing the peptide by 10 µL of formaldehyde.
(§3) The results are interpreted by calculating the percentage of bacterial growth in each well according to the formula:
(§4) %Growth = (OD well - OD of T0)/(OD of T100-OD of T0)*100 where
(§5) • OD of T100 = OD of growth control (bacterial suspension free from sample under test, 100% growth), • OD of T0 = OD of sterility control (culture medium + bacterium + 10 µL formaldehyde, 0% growth) and • OD well = OD of well for which it is sought to calculate the growth percentage (bacterial suspension + peptide under test).
(§6) The MBC is defined as being the minimum peptide concentration leaving no surviving bacteria of the inoculum after incubation at 37° C. for 24 hours. This test consists of smearing the contents of the well wherein the peptide has inhibited bacterial growth on a Petri dish (LB agar), followed by incubation for 24 h at 37° C.
(§7) A 10 mL preculture in Muller-Hinton (MH) medium is prepared by inoculating a colony of the bacterial strain of interest. The preculture is incubated at 37° C. under stirring overnight. The culture is subcultured to 1:100 under the same conditions. The culture concentration is evaluated by measuring the turbidity at 600 nm (OD600 nm 1.0 = 5 × 10^8 CFU/mL for E. coli (Gram-negative bacteria) and 1.5 × 10^8 CFU/mL for S. aureus (Gram-positive bacteria). Once the exponential growth phase (OD600 nm = 0.3 - 0.7) has been achieved, the cultures are diluted in MH medium so as to obtain 10^6 CFU/mL (final inoculum concentration).
(§8) The MIC and the MBC were determined as per the protocol described in part 2.1 of Example 2.

[2] = tested on: Enterococcus faecalis CIP A186; experiment: MIC/MBC (Example 10, MH medium); conditions: Table 4
Experimental: as §1, §2, §3, §4, §5, §6, §7, §8

[3] = tested on: Escherichia coli ATCC 8739; experiment: MIC/MBC (Example 10, MH medium)
Experimental: as §1, §2, §3, §4, §5, §6, §7, §8

Escherichia coli K12 = experiment: MIC/MBC (Example 10, MH medium); conditions: Table 4
Experimental: as §1, §2, §3, §4, §5, §6, §7, §8

Escherichia coli ML35p = experiment: MIC/MBC (Example 10, MH medium); conditions: Table 4
Experimental: as §1, §2, §3, §4, §5, §6, §7, §8

[4] = tested on: Escherichia coli P7 (ESBL); experiment: MIC/MBC (Example 10, MH medium); conditions: Table 4
Experimental: as §1, §2, §3, §4, §5, §6, §7, §8

[5] = tested on: Klebsiella oxytoca CIP 7932; experiment: MIC/MBC (Example 10, MH medium); conditions: Table 4
Experimental: as §1, §2, §3, §4, §5, §6, §7, §8

[6] = tested on: Klebsiella pneumoniae CIP 52.211; experiment: MIC/MBC (Example 10, MH medium); conditions: Table 4
Experimental: as §1, §2, §3, §4, §5, §6, §7, §8

[7] = tested on: Kocuria rhizophila ATCC 9341; experiment: MIC/MBC (Example 10, MH medium); conditions: Table 4
Experimental: as §1, §2, §3, §4, §5, §6, §7, §8

[8] = tested on: Lactococcus garviae ATCC 43921; experiment: MIC/MBC (Example 10, MH medium); conditions: Table 4
Experimental: as §1, §2, §3, §4, §5, §6, §7, §8

[9] = tested on: Listeria monocytogenes SOR 100; experiment: MIC/MBC (Example 10, MH medium); conditions: Table 4
Experimental: as §1, §2, §3, §4, §5, §6, §7, §8

[10] = tested on: Pseudomonas aeruginosa ATCC 27853; experiment: MIC/MBC (Example 10, MH medium); conditions: Table 4
Experimental: as §1, §2, §3, §4, §5, §6, §7, §8

[11] = tested on: Pseudomonas aeruginosa ATCC 9027; experiment: MIC/MBC (Example 10, MH medium)
Experimental: as §1, §2, §3, §4, §5, §6, §7, §8

[12] = tested on: Salmonella enterica CIP 8297; experiment: MIC/MBC (Example 10, MH medium); conditions: Table 4
Experimental: as §1, §2, §3, §4, §5, §6, §7, §8

[13] = tested on: Staphylococcus aureus ATCC 6538; experiment: MIC/MBC (Example 10, MH medium)
Experimental: as §1, §2, §3, §4, §5, §6, §7, §8

[14] = tested on: Staphylococcus aureus MRSA; experiment: MIC/MBC (Example 10, MH medium); conditions: Table 4
Experimental: as §1, §2, §3, §4, §5, §6, §7, §8

[15] = tested on: Staphylococcus aureus ST 1065; experiment: MIC/MBC (Example 10, MH medium); conditions: Table 4
Experimental: as §1, §2, §3, §4, §5, §6, §7, §8

[16] = tested on: Staphylococcus epidermidis BM 3302; experiment: MIC/MBC (Example 10, MH medium); conditions: Table 4
Experimental: as §1, §2, §3, §4, §5, §6, §7, §8

[17] = tested on: Vibrio parahemolyticus IFREMER 01/252; experiment: MIC/MBC (Example 10, MH medium); conditions: Table 4
Experimental: as §1, §2, §3, §4, §5, §6, §7, §8

[18] = tested on: Yersinia ruckeri ATCC 29473; experiment: MIC/MBC (Example 10, MH medium); conditions: Table 4
Experimental: as §1, §2, §3, §4, §5, §6, §7, §8

[19] = tested on: immune cells obtained from mouse bone marrow; experiment: Cytotoxic effects on immune cells obtained from mouse bone marrow; conditions: 12.5 µM; 2 hours
Experimental: The mouse immune cells are obtained from C57BL/6 or Balb/c mouse bone marrow. The peptides are incubated at 37° C., 5% CO2 in the presence of 500,000 immune cells in RPMI medium at varied concentrations for 2 hours. Peptide-free cells are used as the negative control and cells in the presence of DMSO (30%) are used as the positive control. After incubation, the cells are washed then labelled with Trypan blue so as to measure the cell viability by microscope counting. The LC50 is then calculated as being the concentration of DA2N, K12A and DANa peptides inducing the death of 50% of the immune cells.

[20] = Table 4, Enterococcus faecalis CIP 103015
[21] = Table 5, E. faecalis CIP 103015
[22] = Table 4, Escherichia coli ATCC 8739
[23] = Table 4, Pseudomonas aeruginosa ATCC 9027
[24] = Table 5, P. aeruginosa ATCC 9027
[25] = Table 4, Staphylococcus aureus ATCC 6538

Compound: CC[C@H](C)[C@H](NC(=O)CN)C(=O)NCC(=O)N[C@@H](C)C(=O)N[C@H](C(=O)N[C@@H](CC(C)C)C(=O)N[C@@H](CCCCN)C(=O)N[C@H](C(=O)N[C@@H](CC(C)C)C(=O)N[C@H](C(=O)N[C@H](C(=O)NCC(=O)N[C@@H](CC(C)C)C(=O)N1CCC[C@H]1C(=O)N[C@@H](C)C(=O)N[C@@H](CC(C)C)C(=O)N[C@H](C(=O)N[C@@H](CO)C(=O)N[C@@H](Cc1c[nH]c2ccccc12)C(=O)N[C@H](C(=O)N[C@@H](CCCCN)C(=O)N[C@@H](CCCNC(=N)N)C(=O)N[C@@H](CCCCN)C(=O)N[C@@H](CCCNC(=N)N)C(=O)N[C@@H](CCC(N)=O)C(=O)N[C@@H](CCC(N)=O)C(N)=O)[C@@H](C)CC)[C@@H](C)CC)[C@@H](C)O)[C@@H](C)O)C(C)C)C(C)C [Melittin]
- MBC [1, 20]: 1.25 µM (≈ 3.56 µg/mL)
- MIC [1, 20]: 1.25 µM (≈ 3.56 µg/mL)
- MBC [1, 21]: 1.2 µM (≈ 3.42 µg/mL)
- MIC [1, 21]: 1.2 µM (≈ 3.42 µg/mL)
- MBC [2]: 12.5 µM (≈ 35.6 µg/mL)
- MIC [2]: 12.5 µM (≈ 35.6 µg/mL)
- MBC [3, 22]: 2.5 µM (≈ 7.12 µg/mL)
- MIC [3, 22]: 2.5 µM (≈ 7.12 µg/mL)
- MBC ([3]; Table 5, E. coli ATCC 8739): 2.5 µM (≈ 7.12 µg/mL)
- MIC ([3]; Table 5, E. coli ATCC 8739): 2.5 µM (≈ 7.12 µg/mL)
- MBC (Escherichia coli K12): 10 µM (≈ 28.5 µg/mL)
- MIC (Escherichia coli K12): 10 µM (≈ 28.5 µg/mL)
- MBC (Escherichia coli ML35p): 10 µM (≈ 28.5 µg/mL)
- MIC (Escherichia coli ML35p): 10 µM (≈ 28.5 µg/mL)
- MBC [4]: 6.25 µM (≈ 17.8 µg/mL)
- MIC [4]: 6.25 µM (≈ 17.8 µg/mL)
- MBC [5]: 50 µM (≈ 142 µg/mL)
- MIC [5]: 25 µM (≈ 71.2 µg/mL)
- MBC [6]: 10 µM (≈ 28.5 µg/mL)
- MIC [6]: 10 µM (≈ 28.5 µg/mL)
- MBC [7]: 0.8 µM (≈ 2.28 µg/mL)
- MIC [7]: 0.8 µM (≈ 2.28 µg/mL)
- MBC [8]: 25 µM (≈ 71.2 µg/mL)
- MIC [8]: 6.25 µM (≈ 17.8 µg/mL)
- MBC [9]: 3.12 µM (≈ 8.88 µg/mL)
- MIC [9]: 1.5 µM (≈ 4.27 µg/mL)
- MBC [10]: > 50 µM
- MIC [10]: 50 µM (≈ 142 µg/mL)
- MBC [11, 23]: 5 µM (≈ 14.2 µg/mL)
- MIC [11, 23]: 5 µM (≈ 14.2 µg/mL)
- MBC [11, 24]: 5 µM (≈ 14.2 µg/mL)
- MIC [11, 24]: 5 µM (≈ 14.2 µg/mL)
- MBC [12]: > 50 µM
- MIC [12]: 50 µM (≈ 142 µg/mL)
- MBC [13, 25]: 5 µM (≈ 14.2 µg/mL)
- MIC [13, 25]: 5 µM (≈ 14.2 µg/mL)
- MBC ([13]; Table 5, S. aureus ATCC 6538): 5 µM (≈ 14.2 µg/mL)
- MIC ([13]; Table 5, S. aureus ATCC 6538): 5 µM (≈ 14.2 µg/mL)
- MBC [14]: 12.5 µM (≈ 35.6 µg/mL)
- MIC [14]: 6.25 µM (≈ 17.8 µg/mL)
- MBC [15]: 10 µM (≈ 28.5 µg/mL)
- MIC [15]: 10 µM (≈ 28.5 µg/mL)
- MBC [16]: 10 µM (≈ 28.5 µg/mL)
- MIC [16]: 10 µM (≈ 28.5 µg/mL)
- MBC [17]: > 50 µM
- MIC [17]: > 50 µM
- MBC [18]: 12.5 µM (≈ 35.6 µg/mL)
- MIC [18]: 6.25 µM (≈ 17.8 µg/mL)

Compound: ALWKTLLKKVGKVAGKAVLNAVTNMANQNE-OH [DA2NE]
- death of immune cells [19]: induce the death of immune cells at a concentration of 12.5 µM with a comparable efficacy to DA2N
- MBC [1, 21]: 50 µM
- MIC [1, 21]: 12.5 µM
- MBC ([3]; Table 5, E. coli ATCC 8739): 1.6 µM
- MIC ([3]; Table 5, E. coli ATCC 8739): 0.8 µM
- MBC [11, 24]: 3.1 µM
- MIC [11, 24]: 3.1 µM
- MBC ([13]; Table 5, S. aureus ATCC 6538): 12.5 µM
- MIC ([13]; Table 5, S. aureus ATCC 6538): 3.1 µM
